Laboratory results: patent US20090181438A1, “OPTIMIZATION OF BIOFUEL PRODUCTION” (THE OHIO STATE UNIVERSITY RESEARCH FOUNDATION, priority 2007, published 2009)

Columns and labels:
[1] = system: cultures of Botryococcus braunii; details: cited from earlier work
[2] = system: Nannochloropsis sp. cultures
Experimental: Variable fractions (0, 10%, 25%, and 50%) of identical 100 mL Nannochloropsis sp. cultures (n=2) were initially (arrows) mixed (15 min) with decane and exposed to an ultrasonic field (2 sec; 40 kHz water bath), decanted of solvent, then grown (F/2, 23° C., 24:0 of 100 μmol, 100 rpm, 33 ppt, 100 mL in 500 mL flasks). Further, variable timed treatments (arrows) at log-phase and stationary phases were also completed.

Nannochloropsis sp. = assay type: cell-based
Experimental: Under simulated outdoor growing conditions (30 ppt, 26-37° C., 14:10 of 1000 umol, F/2) 12 liter aquaria of Nannochloropsis sp., equipped with mixers and pH controlled (˜7.2) CO2 gas input, had 25% of culture volume removed daily which was variably (0-25% of total fraction) extracted of lipids with decane (15 min) and sonic (2 sec) energy, decanted of solvent, then returned to culture, while the remaining untreated fraction (0-25%) was removed, dried and extracted with hexane.

## CCCCCCC [heptane]
[1]
  solvent toxicity / biocompatibility: nontoxic

## CCCCCCCCCCO [decanol]
[1]
  solvent toxicity / biocompatibility: toxic

## CCCCCC [hexane]
[1]
  solvent toxicity / biocompatibility: nontoxic

## CCCCCCCCCC [decane]
[2]
  growth rate and resultant algal biomass compared to no treatment: can positively affect growth rate and resultant algal biomass
Nannochloropsis sp.
  growth rates and resultant culture biomass: augment growth rates and the resultant culture biomass
  tolerance of daily exposure to treatment: tolerated

## CCCCCOCCCCC [dipentyl ether]
[1]
  solvent toxicity / biocompatibility: toxic
